Entries after “also recorded” stand apart in the source; their conditions may differ.
Columns and labels:
[1] = tested on: Primary human dermal microvascular endothelial cells; assay: ECIS steady-state barrier function of confluent endothelial monolayers; type: cell-based; settings: for endothelial barrier function (ECIS) compared to other Src inhibitors / endothelial barrier function (ECIS) compared to benchmark agents: bosutinib 300 nM; for endothelial barrier function (ECIS) compared to other Src inhibitors: dasatinib 300 nM, PP2 10 μM, monitored ~22 hours, FIG. 7; for endothelial barrier function (ECIS) compared to benchmark agents: HGF 100 ng/ml (1200 nM), APC 500 nM, monitored ~18 hours, FIG. 6
Experimental: (§1) Primary human dermal microvascular endothelial cells were grown to confluence. […] Data are mean±SEM of three independent experiments.
as §1, §1

[2] = tested on: Primary human dermal microvascular endothelial monolayers; assay: Confocal imaging of actin and VE-cadherin junctions during permeability challenge; type: cell-based
From the text: Samples were fixed and stained for actin (i) and the junctional marker VE-cadherin (ii) before imaging by confocal microscopy. To assess quality of endothelial junctions (see B), image thresholding was applied to the VE-cadherin images to delineate the junctions (line traces in [iii]). […] Scale bar represents 10 μm.
Primary human dermal microvascular endothelial monolayers were challenged with either Thrombin (Thr) or Histamine (His) as described above for FIG. 5A. Quantitative analysis of (i) total junctional area per field and (ii) VE-cadherin intensity within junctions were performed to assess maintenance of junctional integrity. […] Data are mean±SEM of three independent experiments.

[3] = tested on: Primary bovine aortic endothelial cells; assay: ECIS barrier function, dose response over 72 hours; type: cell-based; settings: FIG. 2; for vascular barrier function (ECIS resistance, normalized to 1): single doses, 10 nM to 3 μM, monitored 72 hours
Experimental: Primary bovine aortic endothelial cells were grown to confluence. Steady state barrier function was monitored by ECIS for 24 hours and normalized to a value of 1. […] Data are mean±SEM of three independent experiments.

[4] = tested on: Primary human dermal microvascular endothelial cells; assay: Thrombin- and histamine-induced vascular permeability assays (ECIS), pretreatment; type: cell-based; settings: for protection to histamine challenge / protection to thrombin challenge: 300 nM for 30 min; for protection to histamine challenge: then histamine 300 μM, FIG. 3B; for protection to thrombin challenge: then thrombin 2.5 U/ml, FIG. 3A
Experimental: For all assays, primary human dermal microvascular endothelial cells were grown to confluence. Steady state barrier function was monitored by ECIS and normalized to a value of 1. […] Data are mean±SEM of three independent experiments.

FIP rats = assay: Polymicrobial sepsis model (feces-induced peritonitis; FIP), intravital microscopy of the hindlimb; type: in vivo, rat
Experimental: Disease onset was initiated by tail vein injection of a solution of saline and rat feces. […] Microvascular parameters were measured through intravital microscopy of the hindlimb at baseline, 3 hr and 5 hr post FIP onset. […] Data are representative of two separate pilot experiments.

Src = Src (Homo sapiens, UniProt P12931); settings: cited from earlier work
Src, sequence (P12931 whole entry, species assumed): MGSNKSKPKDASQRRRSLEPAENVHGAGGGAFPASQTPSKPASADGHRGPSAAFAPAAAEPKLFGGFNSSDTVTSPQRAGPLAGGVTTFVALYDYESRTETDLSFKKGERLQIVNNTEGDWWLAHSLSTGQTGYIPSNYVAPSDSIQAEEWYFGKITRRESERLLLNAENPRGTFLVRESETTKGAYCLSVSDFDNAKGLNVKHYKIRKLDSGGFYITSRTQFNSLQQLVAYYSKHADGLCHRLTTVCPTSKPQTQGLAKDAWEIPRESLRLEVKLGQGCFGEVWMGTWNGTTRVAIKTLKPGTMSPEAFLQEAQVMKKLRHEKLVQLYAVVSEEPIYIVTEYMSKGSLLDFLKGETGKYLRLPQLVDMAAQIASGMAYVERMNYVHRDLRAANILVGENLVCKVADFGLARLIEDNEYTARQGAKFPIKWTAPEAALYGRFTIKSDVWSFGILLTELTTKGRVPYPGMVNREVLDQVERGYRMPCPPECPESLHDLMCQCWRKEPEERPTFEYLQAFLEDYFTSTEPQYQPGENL

[5] = imaging-based analysis, FIGS. 5A and 5B

For `CC(C)(C)n1nc(-c2ccc(Cl)cc2)c2c(N)ncnc21` [PP2, 3-(4-chlorophenyl)-1-(1,1-dimethylethyl)-1H-pyr-azolo[3,4-d]pyrimidin-4-amine], the “endothelial barrier function (ECIS) compared to other Src inhibitors” value [1] was “greatly reduced, endothelial barrier function; also recorded: sustained decreases in barrier function”.

For `COc1cc(Nc2c(C#N)cnc3cc(OCCCN4CCN(C)CC4)c(OC)cc23)c(Cl)cc1Cl` [bosutinib], the “endothelial junction continuity and gap formation” value ([2]; 300 nM 30 min pretreatment, thrombin 2.5 U/ml or histamine 300 μM for 30 min, FIG. 5A) was “maintains continuous junctions and cortical actin during challenge”, the “VE-cadherin and cortical actin at the intercellular junctions” value [2, 5] was “increase in VE-cadherin and cortical actin at the intercellular junctions” and the “actin stress fibers in endothelial cells” value [2, 5] was “decrease in actin stress fibers”. For the same molecule, the “total junctional area per field” value ([2]; thrombin or histamine challenge, FIG. 5B) was “significantly increased junctional area compared to vehicle controls”, the duration of sustained barrier enhancement ([3]; longest experiments conducted thus far) was > 72 h and the “vascular barrier function (ECIS resistance, normalized to 1)” value [3] was “sustained, dose-dependent increase in vascular barrier function”. The “vascular barrier function (ECIS resistance, normalized to 1)” value ([3]; listed as Bosutinib) was “sustained barrier enhancement effects in a dose-dependent manner”, the “protection to histamine challenge” value [4] was 100% and the “protection to thrombin challenge” value [4] was ~50%. The “protection against pro-leak stimuli by pretreatment” value ([4]; thrombin, histamine, Ang-II and TNF-α) was “conferred profound protection against a range of pro-leak stimuli”, the percent oxygen saturation (FIP rats; 10 mg/kg loading dose at 30 min, 5 mg/kg every two hours, tail vein, FIG. 8C) was “effectively preserved; also recorded: similarly maintained in bosutinib-treated, but not control, FIP rats” and the capillary diameter (FIP rats; 10 mg/kg loading dose at 30 min, 5 mg/kg every two hours, tail vein, FIG. 8D) was “unaltered; also recorded: unchanged in both control and bosutinib rats”. For the same molecule, the “red blood cell (RBC) velocity” value (FIP rats; 10 mg/kg loading dose at 30 min, 5 mg/kg every two hours, tail vein, baseline, 3 hr and 5 hr post FIP onset, FIG. 8A) was “rapidly decline following sepsis onset in control rats, but not in bosutinib-treated rats”, the RBC supply rate (FIP rats; 10 mg/kg loading dose at 30 min, 5 mg/kg every two hours, tail vein, baseline, 3 hr and 5 hr post FIP onset, FIG. 8B) was “rapidly decline following sepsis onset in control rats, but not in bosutinib-treated rats” and the microvascular flow (FIP rats; pilot studies, septic rats, FIGS. 8A and 8B) was “effectively preserved”. For the same molecule, the “endothelial barrier function (ECIS) compared to benchmark agents” value [1] was “exhibits unprecedented efficacy and duration of action”, the “endothelial barrier function (ECIS) compared to benchmark agents” value ([1]; listed as Bosutinib) was “significant and sustained increase in barrier function” and the “endothelial barrier function (ECIS) compared to other Src inhibitors” value [1] was “sustained increase in barrier function”. For the same molecule, the “vascular barrier function (ECIS resistance, normalized to 1)” value ([1]; single 300 nM dose, monitored 3 hours, FIG. 1) was “profoundly enhanced base-line barrier properties; also recorded: increases in resistance” and the “efficacy against Src kinase” value (Src) was “low nanomolar range”.

With `Cc1ccc(NC(=O)c2ccc(CN3CCN(C)CC3)cc2)cc1Nc1nccc(-c2cccnc2)n1` [imatinib, Imatinib] the “protection to histamine challenge” value [4] was 5-10% and the “protection to thrombin challenge” value [4] was 5-10%.

In the case of activated protein C [APC], the “endothelial barrier function (ECIS) compared to benchmark agents” value [1] is reported as “increase in barrier function that was relatively minor in both magnitude and duration”.

With hepatocyte growth factor [HGF] the “endothelial barrier function (ECIS) compared to benchmark agents” value [1] was “initially promoted a similar increase, which was rapidly reversed after ˜20 minutes leading ultimately to a sustained decrease in barrier function”.

Reference: patent US20160256457A1, “METHODS FOR TREATING OR PREVENTING ACUTE VASCULAR LEAK” (Beth Israel Deaconess Medical Center, Inc., priority 2014, published 2016)
